From ChEMBL document CHEMBL6096630, “Enhancing therapeutic efficacy in homologous recombination-proficient pancreatic cancer via the combination of PARP1-PROTAC and a BRD4 inhibitor” (Bioorg Med Chem, 2024)
The source made the active and inactive calls. No cut-off for these calls is given here.

Tests used:
[1] = biological target: Bromodomain-containing protein 4 (Homo sapiens) (UniProt O60885); assay: Inhibition of BRD4 in human PANC-1 cells at 2 uM incubated for 24 hrs in presence of JQ1 by immunofluorescence based analysis; format: cell-based
PANC-1 [2] = assay: Induction of cell cycle arrest in human PANC-1 cells assessed as accumulation at G1 phase at 2.5 uM incubated for 24 hrs by PI staining based flow cytometry (reference value: 51.70 %); format: functional
PANC-1 [3] = assay: Induction of cell cycle arrest in human PANC-1 cells assessed as accumulation at S phase at 5 uM incubated for 24 hrs by PI staining based flow cytometry (reference value: 38.94 %); format: functional
PANC-1 [4] = assay: Induction of cell cycle arrest in human PANC-1 cells assessed as accumulation at G1 phase at 10 uM incubated for 24 hrs by PI staining based flow cytometry (reference value: 51.70 %); format: functional
PANC-1 [5] = assay: Induction of cell cycle arrest in human PANC-1 cells assessed as accumulation at S phase at 2 uM incubated for 24 hrs in presence of JQ1 by PI staining based flow cytometry (reference value: 38.94 %); format: functional
PANC-1 [6] = assay: Induction of cell cycle arrest in human PANC-1 cells assessed as accumulation at G0/G1 phase at 2 uM incubated for 24 hrs in presence of JQ1 by PI staining based flow cytometry relative to control; format: functional
PANC-1 [7] = assay: Induction of apoptosis in human PANC-1 cells assessed as early apoptotic cells at 0.6 uM incubated for 48 hrs by Annexin V-FITC/PI staining based flow cytometry (reference value: 1.41 %); format: functional
PANC-1 [8] = assay: Induction of apoptosis in human PANC-1 cells assessed as late apoptotic cells at 0.6 uM incubated for 48 hrs by Annexin V-FITC/PI staining based flow cytometry (reference value: 3.87 %); format: functional
PANC-1 [9] = assay: Induction of apoptosis in human PANC-1 cells assessed as viable cells at 1.2 uM incubated for 48 hrs by Annexin V-FITC/PI staining based flow cytometry (reference value: 91.64 %); format: functional; conditions: read-out: Activity
PANC-1 [10] = assay: Induction of apoptosis in human PANC-1 cells assessed as necrotic cells at 2.5 uM incubated for 48 hrs by Annexin V-FITC/PI staining based flow cytometry (reference value: 3.09 %); format: functional
PANC-1 [11] = assay: Induction of apoptosis in human PANC-1 cells assessed as viable cells at 5 uM incubated for 48 hrs by Annexin V-FITC/PI staining based flow cytometry (reference value: 91.64 %); format: functional; conditions: read-out: Activity
PANC-1 [12] = assay: Induction of apoptosis in human PANC-1 cells assessed as late apoptotic cells at 10 uM incubated for 48 hrs by Annexin V-FITC/PI staining based flow cytometry (reference value: 3.87 %); format: functional
PANC-1 [13] = assay: Induction of apoptosis in human PANC-1 cells assessed as viable cells at 2 uM incubated for 48 hrs in presence of JQ1 by Annexin V-FITC/PI staining based flow cytometry (reference value: 91.64 %); format: functional; conditions: read-out: Activity
PANC-1 [14] = assay: Antitumor activity against human PANC-1 cells xenografted in BALB/c mouse assessed as inhibition of tumor weight at 40 mg/kg, ip for 4 weeks administered for 5 days consecutively and 2 days without treatment on every week in presence of JQ1; format: functional, organism-based
[15] = Toxicity in BALB/c mouse xenografted with human PANC-1 cells assessed as animal morbidity at 40 mg/kg, ip for 4 weeks administered for 5 days consecutively and 2 days without treatment on every week in presence of JQ1; format: organism-based; conditions: in vivo, 672 h
[16] = Toxicity in BALB/c mouse xenografted with human PANC-1 cells assessed as animal mortality at 40 mg/kg, ip for 4 weeks administered for 5 days consecutively and 2 days without treatment on every week; format: organism-based; conditions: in vivo, 672 h
[17] = Toxicity in BALB/c mouse xenografted with human PANC-1 cells assessed as pathological changes in spleen at 40 mg/kg, ip for 4 weeks administered for 5 days consecutively and 2 days without treatment on every week by H and E staining based analysis; format: organism-based; conditions: in vivo, 672 h
[18] = Toxicity in BALB/c mouse xenografted with human PANC-1 cells assessed as pathological changes in spleen at 40 mg/kg, ip for 4 weeks administered for 5 days consecutively and 2 days without treatment on every week in presence of JQ1 by H and E staining based analysis; format: organism-based; conditions: in vivo, 672 h
[19] = Toxicity in BALB/c mouse xenografted with human PANC-1 cells assessed as pathological changes in kidney at 40 mg/kg, ip for 4 weeks administered for 5 days consecutively and 2 days without treatment on every week by H and E staining based analysis; format: organism-based; conditions: in vivo, 672 h
[20] = Toxicity in BALB/c mouse xenografted with human PANC-1 cells assessed as pathological changes in kidney at 40 mg/kg, ip for 4 weeks administered for 5 days consecutively and 2 days without treatment on every week in presence of JQ1 by H and E staining based analysis; format: organism-based; conditions: in vivo, 672 h
PANC-1 [21] = assay: Synergistic inhibition of colony formation in human PANC-1 cells at 2 uM incubated for 14 days in presence of JQ1 by crystal violet staining based analysis; format: functional, cell-based; conditions: time 14.0 day
PANC-1 [22] = assay: Anti-invasive activity in human PANC-1 cells at 2 uM in presence of JQ1 incubated for 48 hrs by Matrigel assay relative to control; format: functional
[23] = biological target: Protein cereblon/Poly [ADP-ribose] polymerase 1 (Homo sapiens, UniProt P09874+Q96SW2); assay: PROTAC activity at CRBN/PARP1 in human BXPC-3 cells assessed as induction of PARP1 degradation incubated for 24 hrs by Western blot analysis; format: cell-based
PANC-1 [24] = assay: Inhibition of colony formation in human PANC-1 cells at 1 uM incubated for 14 days by crystal violet staining based analysis; format: functional, cell-based; conditions: time 14.0 day
PANC-1 [25] = assay: Induction of DNA damage in human PANC-1 cells assessed as decrease in BRCA1 level at 1 uM in presence of OL by Western blot analysis; format: functional, cell-based
PANC-1 [26] = assay: Induction of cell cycle arrest in human PANC-1 cells assessed as accumulation at S phase at 0.25 uM incubated for 24 hrs by PI staining based flow cytometry (reference value: 38.94 %); format: functional
PANC-1 [27] = assay: Induction of cell cycle arrest in human PANC-1 cells assessed as accumulation at G2 phase at 0.25 uM incubated for 24 hrs by PI staining based flow cytometry (reference value: 9.36 %); format: functional
PANC-1 [28] = assay: Induction of cell cycle arrest in human PANC-1 cells assessed as accumulation at S phase at 0.12 uM incubated for 24 hrs by PI staining based flow cytometry (reference value: 38.94 %); format: functional
PANC-1 [29] = assay: Induction of cell cycle arrest in human PANC-1 cells assessed as accumulation at G2 phase at 0.12 uM incubated for 24 hrs by PI staining based flow cytometry (reference value: 9.36 %); format: functional
PANC-1 [30] = assay: Induction of apoptosis in human PANC-1 cells assessed as viable cells at 0.12 uM incubated for 48 hrs by Annexin V-FITC/PI staining based flow cytometry (reference value: 91.64 %); format: functional; conditions: read-out: Activity
[31] = Toxicity in BALB/c mouse xenografted with human PANC-1 cells assessed as pathological changes in liver at 20 mg/kg, ip for 4 weeks administered for 5 days consecutively and 2 days without treatment on every week in presence of OL by H and E staining based analysis; format: organism-based; conditions: in vivo, 672 h

Structure (SMILES) | inhibition [1] | Activity (PANC-1 [2]) [%] | Activity (PANC-1 [3]) [%] | Activity (PANC-1 [4]) [%] | Activity (PANC-1 [5]) [%] | Activity (PANC-1 [6]) [%] | Activity (PANC-1 [7]) [%] | Activity (PANC-1 [8]) [%] | viability at 1.2 µM (PANC-1 [9]) [%] | Activity (PANC-1 [10]) [%] | viability at 5 µM (PANC-1 [11]) [%] | Activity (PANC-1 [12]) [%] | viability at 2 µM (PANC-1 [13]) [%] | inhibition (PANC-1 [14]) | Activity [15] | Activity [16] | Activity [17] | Activity [18] | Activity [19] | Activity [20] | also measured
O=C(c1cc(Cc2n[nH]c(=O)c3ccccc23)ccc1F)N1CCN(C(=O)C2CC2)CC1 [OLAPARIB] | Active | 44.32 | 43.96 | 35.31 | 25.85 | 12.43 | 2.25 | 4.21 | 89.1 | 3.45 | 88.2 | 5.35 | 68.3 | Active | Non-toxic | Non-toxic | Non-toxic | Non-toxic | Non-toxic | Non-toxic | –
O=C1CCC(N2C(=O)c3cccc(NC(=O)CNCCCCCCCCCCC(=O)N4CCN(C(=O)c5cc(Cc6n[nH]c(=O)c7ccccc67)ccc5F)CC4)c3C2=O)C(=O)N1 (configuration not stated) | Active | 43.76 | 42.71 | 43.14 | 26.81 | 50.25 | 3.9 | 3.89 | 89.8 | 2.55 | 86.7 | 5.33 | 64.3 | Active | Non-toxic | Non-toxic | Non-toxic | Non-toxic | Non-toxic | Non-toxic | inhibition (PANC-1 [21]): Active; Activity (PANC-1 [22]): 12.4%; DC50 [23]: 4.74 nM; Activity ([23]; dose <= 10.0 µM): Dose-dependent-effect
Cc1sc2c(c1C)C(c1ccc(Cl)cc1)=N[C@@H](CC(=O)OC(C)(C)C)c1nnc(C)n1-2 | – | – | – | – | – | – | – | – | – | – | – | – | – | – | – | – | – | – | – | – | inhibition (PANC-1 [24]): Active; Activity (PANC-1 [25]): Active; Activity (PANC-1 [26]): 38.89%; Activity (PANC-1 [27]): 12.15%; Activity (PANC-1 [28]): 40.51%; Activity (PANC-1 [29]): 13.25%; viability at 0.12 µM (PANC-1 [30]): 90.2%; Activity [31]: Non-toxic
